Measured values reported in patent publication US20230067929A1, “HETEROCYCLIC DERIVATIVES, PHARMACEUTICAL COMPOSITIONS AND THEIR USE IN THE TREATMENT, AMELIORATION OR PREVENTION OF CANCER” (Tolremo Therapeutics AG, priority 2018, published 2023).

test system: A375 cells; test: A375 cell immunofluorescence assay (with 1 μM S1152 and 0.5 μM S1008), EC50; type: cell-based; conditions: 1 μM S1152 + 0.5 μM S1008, one day, ratio FL2/FL3 staining (sc-365823 antibody)
Experimental: One thousand four hundred A375 cells were seeded in each well of a 384 well microplate. One day later they were treated with 1 μM S1152 (Selleckchem) in dimethyl sulfoxide, 0.5 μM S1008 (Selleckchem) and dose ranges of invention compounds for one day in Dulbecco's Modified Eagle's Medium supplemented with 10% fetal calf serum and 2 mM (2S)-2-amino-4-carbamoylbutanoic acid. Wells were incubated with 4% polyoxymethylene (Sigma Aldrich 158127) at ambient temperature. After ten minutes, polyoxymethylene was replaced with phosphate-buffered saline. After one minute phosphate-buffered saline was replaced with 0.2% polyethylene glycol octylphenyl ether in phosphate-buffered saline. After ten minutes at ambient temperature 0.2% polyethylene glycol octylphenyl ether in phosphate-buffered saline was replaced with 1% aminoethanoic acid in phosphate-buffered saline. […] After one hour at 37° C., the solution was replaced with phosphate-buffered saline twice. Phosphate-buffered saline was replaced with 2 μg/ml A-11029 (Invitrogen) in 0.05% polyoxyethylene (20) sorbitan monolaurate in phosphate-buffered saline. […] After one hour at ambient temperature in the dark, signal in wells was measured with a Acumen Cellista. 3,8-Diamino-5-[3-(diethylmethylammonio)propyl]-6-phenylphenanthridinium diiodide-positive objects were defined in FL3 (565-600 nm) with a perimeter between 50-800 μm and a total intensity of 10000-1000000 FLU. Signal in FL2 (500-530 nm) was measured in defined objects. A normalized ratio of total ln FL2 over total ln FL3 staining was log transformed. A non-linear regression (variable slope, 4 parameters) was used to calculate EC50 values using GraphPad Prism (Version 7.0d).

EC50 | Compound
> 10 µM | CC(=O)N1CCCC(c2nc(Nc3cnccn3)cc(-c3cccnc3)n2)C1 (stereo not drawn)
1 to 10 µM | CC(=O)N1CCCC(c2nc(Nc3cc(F)cc(F)c3)cc(-c3cncnc3)n2)C1 (stereo not drawn)
< 1 µM | CC(=O)N1CCCC(c2nc(Nc3cccc(F)c3)cc(-c3scc4c3OCCO4)n2)C1 (stereo not drawn)
> 10 µM | CCC(=O)N1CCCC(c2nc(Nc3cccc(F)c3)cc(-c3ccncc3)n2)C1 (stereo not drawn)
1 to 10 µM | CC(=O)N1CCCC(c2nc(NC34CC(C3)C4)cc(-c3cncc4[nH]ccc34)n2)C1 (stereo not drawn)
1 to 10 µM | CC(=O)N1CCCC(c2nc(Nc3cncc(C)c3)cc(-c3cncc4[nH]ccc34)n2)C1 (stereo not drawn)
> 10 µM | CCC(=O)N1CCCC(c2nc(NCc3ccccc3)cc(Nc3cccc(F)c3)n2)C1 (stereo not drawn)
> 10 µM | CCC(=O)N1CCCC(c2nc(Nc3cccc(F)c3)cc(-c3ccc(OC)nc3)n2)C1 (stereo not drawn)
1 to 10 µM | CC(=O)N1CCCC(c2nc(Nc3cccc(F)c3)cc(-c3cnn(CC(F)(F)F)c3)n2)C1 (stereo not drawn)
> 10 µM | CC(=O)N1CCCC(c2nc(Nc3ccccn3)cc(-c3cccnc3)n2)C1 (stereo not drawn)
> 10 µM | CCC(=O)N1CCCC(c2nc(Nc3cccc(F)c3)cc(-c3cscn3)n2)C1 (stereo not drawn)
> 10 µM | CC(=O)N1CCCC(c2nc(Nc3cccc(F)c3)cc(-c3ncco3)n2)C1 (stereo not drawn)
< 1 µM | CC(=O)N1CC(c2ccccc2)CC(c2nc(Nc3cccc(F)c3)cc(-c3cccnc3)n2)C1 (stereo not drawn)
< 1 µM | CC(=O)Nc1ccc(-c2cc(Nc3cccc(F)c3)nc(C3CCCN(C(C)=O)C3)n2)cc1 (stereo not drawn)
> 10 µM | CCC(=O)N1CCCC(c2nc(Nc3cccc(F)c3)cc(-c3ccsc3)n2)C1 (stereo not drawn)
> 10 µM | CC(=O)N1CCCC(c2nc(Nc3cccc(F)c3)cc(-c3cncc(N4CCN(C)CC4)c3)n2)C1 (stereo not drawn)
> 10 µM | O=C(N1CCCC(c2nc(Nc3cccc(F)c3)cc(-c3cccnc3)n2)C1)C(F)(F)F (stereo not drawn)
1 to 10 µM | CCC(=O)N1CCCC(c2nc(Nc3ccc(C)cc3)cc(-c3cccnc3)n2)C1 (stereo not drawn)
< 1 µM | CC(=O)N1CCCC(c2nc(Nc3cc(F)cc(F)c3)cc(-c3cccnc3)n2)C1 (stereo not drawn)
1 to 10 µM | CC(=O)N1CCCC(c2nc(Nc3ccnc(C)c3)cc(-c3cccnc3)n2)C1 (stereo not drawn)

EC50 | Compound
1 to 10 µM | COc1cccc(-c2cc(Nc3cccc(F)c3)nc(C3CCCN(C(C)=O)C3)n2)c1 (stereo not drawn)
1 to 10 µM | CCC(=O)N1CCCC(c2nc(Nc3cccc(F)c3)cc(-c3ccc(OC)cc3)n2)C1 (stereo not drawn)
< 1 µM | CC(=O)N1CCCC(c2nc(Nc3cccc(F)c3)cc(-c3cncc(-c4nccs4)c3)n2)C1 (stereo not drawn)
1 to 10 µM | CC(=O)N1CCCC(c2nc(Nc3cccc(F)c3)cc(-c3cccs3)n2)C1 (stereo not drawn)
> 10 µM | CC(=O)N1CCCC(c2nc(Nc3cccc(F)c3)cc(-c3cncc(C(F)(F)F)c3)n2)C1 (stereo not drawn)
> 10 µM | CCC(=O)N1CCCC(c2nc(Nc3cccc(F)c3)cc(-c3ccc4ocnc4c3)n2)C1 (stereo not drawn)
1 to 10 µM | CC(=O)N1CCCC(c2nc(Nc3cncc(C)c3)cc(-c3cccnc3)n2)C1 (stereo not drawn)
1 to 10 µM | COc1ccc(-c2cc(Nc3cccc(F)c3)nc(C3CCCN(C(C)=O)C3)n2)cc1 (stereo not drawn)
> 10 µM | CC(=O)N1CCCC(c2nc(Nc3ccncn3)cc(-c3cccnc3)n2)C1 (stereo not drawn)
> 10 µM | O=C(C(F)F)N1CCCC(c2nc(Nc3cccc(F)c3)cc(-c3cccnc3)n2)C1 (stereo not drawn)
> 10 µM | CCC(=O)N1CCCC(c2nc(NC3CC3)cc(-c3cccnc3)n2)C1 (stereo not drawn)
1 to 10 µM | CC(=O)N1CCCC(c2nc(Nc3cccc(F)c3)cc(NC3CCCOC3)n2)C1 (stereo not drawn)
> 10 µM | CC(=O)N1CCCC(c2nc(Nc3ccncc3)cc(Nc3cccc(F)c3)n2)C1 (stereo not drawn)
1 to 10 µM | COc1cncc(-c2cc(Nc3cccc(OCCOCCOCCNC(C)=O)c3)nc(C3CCCN(C(C)=O)C3)n2)c1 (stereo not drawn)
> 10 µM | CC(=O)N1CCCC(c2nc(Nc3ccnnc3)cc(-c3cccnc3)n2)C1 (stereo not drawn)
< 1 µM | CC(=O)N1CCC[C@@H](c2nc(Nc3cccc(F)c3)cc(-c3cccnc3)n2)C1
> 10 µM | CCC(=O)N1CCCC(c2nc(Nc3cccc(F)c3)cc(-c3sc(CC)nc3C)n2)C1 (stereo not drawn)
1 to 10 µM | CC(=O)N1CCCC(c2nc(Nc3ccncc3)cc(-c3cccnc3)n2)C1 (stereo not drawn)
> 10 µM | CCC(=O)N1CCCC(c2nc(Nc3ccc(OC)nc3)cc(-c3cccnc3)n2)C1 (stereo not drawn)
